In publication PMC8472965, “BmK86-P1, a New Degradation Peptide with Desirable Thermostability and Kv1.2 Channel-Specific Activity from Traditional Chinese Scorpion Medicinal Material” (Toxins, 2021):
Positions of bridges follow the written chain, without caps; N, C: chain ends. Residues, ends and D or L forms follow the SMILES beside them.

Experiments:
Format in all cases: cell-based
hKv1.3 channel = target: T1, hKv1.3 channel (Homo sapiens, UniProt P22001); test: Whole-cell patch clamp, hKv1.3 channel overexpressed in HEK293T cells; conditions: 1 μM peptide, room temperature (~25 °C), mean ± S.E., n ≥ 3, SEM
T1 construct: expressed in transfected cells; host or cells: HEK293T
T1 sequence (P22001 whole entry): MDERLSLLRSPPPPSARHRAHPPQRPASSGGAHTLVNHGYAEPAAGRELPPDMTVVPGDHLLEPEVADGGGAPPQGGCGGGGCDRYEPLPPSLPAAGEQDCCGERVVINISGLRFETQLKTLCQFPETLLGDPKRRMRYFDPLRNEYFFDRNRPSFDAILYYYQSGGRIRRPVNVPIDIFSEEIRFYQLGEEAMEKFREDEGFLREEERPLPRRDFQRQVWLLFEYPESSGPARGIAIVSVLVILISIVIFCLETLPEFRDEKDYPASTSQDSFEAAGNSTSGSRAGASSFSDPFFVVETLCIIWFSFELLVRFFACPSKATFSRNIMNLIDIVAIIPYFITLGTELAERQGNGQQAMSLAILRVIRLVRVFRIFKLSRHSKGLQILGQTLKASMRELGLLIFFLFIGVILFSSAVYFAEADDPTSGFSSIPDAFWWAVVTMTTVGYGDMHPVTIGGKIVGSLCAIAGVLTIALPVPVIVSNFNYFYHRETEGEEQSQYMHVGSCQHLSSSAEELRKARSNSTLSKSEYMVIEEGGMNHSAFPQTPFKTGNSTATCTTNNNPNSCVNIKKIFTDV
Protocol: (§1) To investigate the electrophysiological activities of BmK86-P1, the whole-cell patch clamp technique was applied to test the effects of BmK86-P1 on multiple potassium channels. The hKv1.1, hKv1.2, hKv1.3, hKv1.6, hKv3.2, mKv4.1, rKv4.2, rKv4.3 and hERG channels were overexpressed in HEK293T cells, then the inhibitory effects of BmK86-P1 at 1 μM on these potassium channels were measured. […] To further investigate the affinity of BmK86-P1 inhibiting the hKv1.2 channel, a dose-dependent study was performed by examining the inhibitory effects of different concentrations of BmK86-P1.
(§2) All potassium channel expression vectors were given by others or constructed by ourselves. HEK293T cells were cultured in Dulbecco’s modified Eagle medium (Gibco, Pittsburgh, PA, USA) with 10% fetal bovine serum and penicillin/streptomycin (100 units/mL) in a 5% CO2 incubator at 37 °C. […] The potassium currents were recorded after transfection for 1 to 3 days.
(§3) The channel currents were measured and recorded by whole-cell patch clamp technology according to previously published references. […] The channel currents were recorded at room temperature (~25 °C) using an EPC 10 patch clamp amplifier. […]
(§4) The ClampFit (Molecular Devices, Sunnyvale, CA, USA) and SigmaPlot software ([…], Chicago, IL, USA) were used to analyze the recorded data. […]

hKv1.2-R354A = target: T2, hKv1.2-R354A (Homo sapiens, UniProt P16389, R354A); test: Whole-cell patch clamp, hKv1.2 channel mutant R354A; conditions: 100 nM peptide, HEK293T, mean ± S.E., n ≥ 3, SEM
T2 construct: expressed in transfected cells; host or cells: HEK293T
T2 sequence (P16389 whole entry R354A): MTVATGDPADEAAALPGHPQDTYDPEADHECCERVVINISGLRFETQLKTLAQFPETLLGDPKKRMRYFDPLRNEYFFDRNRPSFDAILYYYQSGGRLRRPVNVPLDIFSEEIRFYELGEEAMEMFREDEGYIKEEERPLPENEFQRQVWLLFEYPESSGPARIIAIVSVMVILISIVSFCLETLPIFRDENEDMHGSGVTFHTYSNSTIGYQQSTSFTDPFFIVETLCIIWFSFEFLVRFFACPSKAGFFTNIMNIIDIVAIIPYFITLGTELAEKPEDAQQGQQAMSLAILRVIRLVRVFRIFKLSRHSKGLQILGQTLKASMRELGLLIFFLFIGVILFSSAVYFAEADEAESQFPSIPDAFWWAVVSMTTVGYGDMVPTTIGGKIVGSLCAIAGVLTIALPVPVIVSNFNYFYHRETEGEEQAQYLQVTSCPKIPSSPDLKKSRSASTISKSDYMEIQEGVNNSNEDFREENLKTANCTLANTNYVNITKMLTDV
Protocol: (§5) To determine the functional sites of the hKv1.2 channel responsible for the selectivity of BmK86-P1, six hKv1.2 mutants were obtained based on sequence differences between the pore regions of the hKv1.2 and hKv1.1 channels (Figure 4A). Then, the activities of 100 nM BmK86-P1 on these six mutant channels were tested. […] The other three mutant channels (hKv1.2-D352E, hKv1.2-R354A and hKv1.2-P359S) still kept similar sensitivities toward BmK86-P1 compared with the wild-type hKv1.2 channel (Figure 4H,I,K,N).
(§6) All potassium channel expression vectors were given by others or constructed by ourselves. HEK293T cells were cultured in Dulbecco’s modified Eagle medium (Gibco, Pittsburgh, PA, USA) with 10% fetal bovine serum and penicillin/streptomycin (100 units/mL) in a 5% CO2 incubator at 37 °C. Potassium channel expression vectors and pEGFP-N1 were co-transfected into HEK293T cells using TurboFect in vitro Transfection Reagent (Thermo Scientific, Waltham, MA, USA) according to the manufacturer’s instructions. The potassium currents were recorded after transfection for 1 to 3 days.
as §3

hKv1.2-D352E = target: T3, hKv1.2-D352E (Homo sapiens, UniProt P16389, D352E); test: Whole-cell patch clamp, hKv1.2 channel mutant D352E; conditions: 100 nM peptide, HEK293T, mean ± S.E., n ≥ 3, SEM
T3 construct: expressed in transfected cells; host or cells: HEK293T
T3 sequence (P16389 whole entry D352E): as the sequence (P16389 whole entry R354A) above, with D352E, A354R counted along it
Protocol: as §5, §6, §3

hERG channel = target: T4, hERG channel (Homo sapiens, UniProt Q12809); conditions: 1 μM peptide; whole-cell patch clamp, HEK293T; mean ± S.E., n ≥ 3; SEM
T4 construct: expressed in transfected cells; host or cells: HEK293T
T4 sequence (Q12809 whole entry): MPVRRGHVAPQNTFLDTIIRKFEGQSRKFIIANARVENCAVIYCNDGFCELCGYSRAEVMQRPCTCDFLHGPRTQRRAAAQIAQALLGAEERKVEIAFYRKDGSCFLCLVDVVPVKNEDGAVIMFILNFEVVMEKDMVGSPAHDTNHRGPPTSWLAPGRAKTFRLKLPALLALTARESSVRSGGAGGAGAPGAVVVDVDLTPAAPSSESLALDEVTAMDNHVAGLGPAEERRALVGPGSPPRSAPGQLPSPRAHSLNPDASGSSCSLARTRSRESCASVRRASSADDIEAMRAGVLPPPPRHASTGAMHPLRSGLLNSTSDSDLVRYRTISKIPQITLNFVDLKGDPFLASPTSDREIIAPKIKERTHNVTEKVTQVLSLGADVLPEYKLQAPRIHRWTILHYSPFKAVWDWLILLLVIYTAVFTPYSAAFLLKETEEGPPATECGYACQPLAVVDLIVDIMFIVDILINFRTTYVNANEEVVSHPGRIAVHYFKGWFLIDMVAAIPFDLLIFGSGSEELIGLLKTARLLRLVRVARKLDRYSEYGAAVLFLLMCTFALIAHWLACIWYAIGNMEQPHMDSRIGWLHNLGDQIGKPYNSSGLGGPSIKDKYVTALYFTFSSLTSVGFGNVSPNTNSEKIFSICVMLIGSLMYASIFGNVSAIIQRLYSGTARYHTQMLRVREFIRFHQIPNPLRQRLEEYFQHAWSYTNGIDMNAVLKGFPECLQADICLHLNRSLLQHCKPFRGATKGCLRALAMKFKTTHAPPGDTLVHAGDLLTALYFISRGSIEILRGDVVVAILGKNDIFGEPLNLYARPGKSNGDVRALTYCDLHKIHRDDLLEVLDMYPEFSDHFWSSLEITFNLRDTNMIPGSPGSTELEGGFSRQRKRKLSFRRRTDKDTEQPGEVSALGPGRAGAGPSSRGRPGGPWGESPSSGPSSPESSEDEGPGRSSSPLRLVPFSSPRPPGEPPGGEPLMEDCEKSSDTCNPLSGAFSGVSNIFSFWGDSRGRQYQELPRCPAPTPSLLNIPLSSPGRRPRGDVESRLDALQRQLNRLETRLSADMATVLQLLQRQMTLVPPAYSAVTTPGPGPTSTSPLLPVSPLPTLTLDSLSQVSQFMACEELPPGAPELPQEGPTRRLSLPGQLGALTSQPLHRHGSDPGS
Protocol: as §1, §2, §3, §4

[1] = target: T5, hKv1.2-M3 chimeric channel (Homo sapiens, UniProt P16389, T383V/V381Y); test: Whole-cell patch clamp, chimeric channel hKv1.2-M3 (turret or filter region of hKv1.2 substituted by that of hKv1.1); conditions: 100 nM peptide, HEK293T, mean ± S.E., n ≥ 3, SEM
T5 construct: expressed in transfected cells; host or cells: HEK293T
T5 sequence (P16389 whole entry V381Y/T383V): as the sequence (P16389 whole entry R354A) above, with A354R, V381Y, T383V counted along it
Description: The turret and filter region of potassium channels have different effects on the toxin binding for different scorpion toxins. To investigate the importance of these two regions of potassium channels in interacting with BmK86-P1, another two channel chimeras (i.e., hKv1.2-M2 and hKv1.2-M3) were constructed, in which the turret or the filter region of the hKv1.2 channel was substituted by the equivalent region of the hKv1.1 channel.
as §6
as §3, with “references. The internal patch pipette solution and the bath solution were prepared as previously described.” for “references.”

CC[C@H](C)[C@@H]1NC(=O)[C@@H]2CSSC[C@H](NC(=O)[C@H](C)N)C(=O)N[C@@H](CO)C(=O)N[C@@H](CCCCN)C(=O)N3CCC[C@H]3C(=O)N[C@H]3CSSC[C@H](NC(=O)[C@H](CCCNC(=N)N)NC(=O)CNC(=O)[C@H](CC(N)=O)NC1=O)C(=O)N[C@@H](Cc1c[nH]cn1)C(=O)N[C@H](C(=O)N[C@@H](Cc1ccc(O)cc1)C(=O)N[C@@H](Cc1ccc(O)cc1)C(=O)O)CSSC[C@H](NC(=O)[C@H](Cc1ccc(O)cc1)NC(=O)[C@H](CCCCN)NC(=O)[C@H](CCCNC(=N)N)NC3=O)C(=O)N[C@@H]([C@@H](C)CC)C(=O)N[C@@H](CC(=O)O)C(=O)N[C@@H](CCCCN)C(=O)NCC(=O)N[C@@H](C)C(=O)N[C@@H](CCCNC(=N)N)C(=O)N[C@@H](CC(N)=O)C(=O)NCC(=O)N[C@@H](CCCCN)C(=O)N2 [BmK86-P1] (H-ACSKPCRKYCIDKGARNGKCINGRCHCYY-OH; disulfide 2-20, 6-25, 10-27 (inferred); N-terminus and C-terminus assumed)
inhibition of hKv1.3 channel currents (hKv1.3 channel): 52.1 ± 3.1%
inhibition of hKv1.2-R354A channel currents (hKv1.2-R354A): 73.3 ± 1.3%
inhibition of hKv1.2-D352E channel currents (hKv1.2-D352E): 74.8 ± 1.2%
inhibition of hERG channel currents (hERG channel): 13.3 ± 3.3%
inhibition of hKv1.2-M3 chimeric channel currents [1]: 1.5 ± 0.6%
